In US20070166547A1, “Use of a layer consisting of hydrophobic linear, or two-dimensional polycyclic aromatics as a barrier layer or an encapsulation and electric components constructed with a layer of this type and comprising organic polymers” (priority 2003, published 2007):

What was measured:
[1] = system: adenosine-sensitive receptors of thrombocytes; assay: ADP-induced aggregation of thrombocytes in vitro (Born method); type: cell-based, rabbit; conditions: 3 min incubation, ADP 10^−5 M
Procedure: The compounds according to the invention were studied for the effect of aggregation of thrombocytes induced by a preliminary introduction of a solution of an aggregation inductor with a competing introduction of the compounds according to the invention.
The aggregation of thrombocytes was studied by the Born method based on determination of the changes in the optical density of plasma enriched with thrombocytes after its incubation with an aggregation inductor.
Adenozinediphosphoric acid (ADP) was selected as an aggregation inductor, which in fact is an aggregation generator. Use was made of a sample (registration number 885) of the Sigma Diagnostics Company (USA) in final concentration of 10^−5 M.
The experiments were carried out on male rabbits of the “Chinchilla” breed having a mass of 2.7±0.3 kg. 18-24 hours prior to the experiment they were deprived of feed while preserving free access to water.
To obtain plasma enriched with thrombocytes, blood was taken from a cut of a marginal vein of the rabbit ear, the sample was stabilized with 3.8% of sodium citrate solution in a ratio of 9:1 and centrifuged at 200 g (1000 rev/min) for 10 minutes. The top supernatant layer enriched with thrombocytes was transferred by an automatic dropper into a silicone test tube and kept at 37° C. The plasma enriched with thrombocytes contained, on the average, […]. If this content exceeded the specified 3×10^8 blood platelets in 1 liter, this sample was diluted to the necessary concentration with plasma deprived of thrombocytes, which was obtained by centrifuging blood at 650 g during 10 minutes.
The measurements of the optical density of the samples were made on two-channel aggregometer of the “Chronolog” Company (USA). A flask containing 490 mkl of plasma rich with thrombocytes was placed in a device, into which a magnetic agitator covered with Teflon was lowered. The index of maximum amplitude of aggregation (MA) in percent of a fall of the plasma optical density under effect of the aggregation inductor was recorded. The control index MA of plasma was compared with the MA of plasma incubated for 3 minutes with different concentrations of the compounds: from 10^−3 to 10^−7 in vitro experiments or with plasma obtained 15, 30, 60 and 120 minutes after intravenous administration of different doses of the compounds in vivo experiments.
The process of aggregation of thrombocytes was recorded with the help of a computer; on the monitor screen the there were depicted curves reflecting changes of the optical density of the plasma enriched which was taken as a standard 100% compared to the optical density of the non-thrombocyte plasma taken for 0% content of thrombocytes.
Under in vitro conditions a flask was filled with blood plasma enriched with thrombocytes, to which an aggregation inductor ADP was added at a concentration of 10^−5 M, incubated for 3 minutes, and then the compounds according to the invention were introduced directly into the flask. Their action by aggregation of thrombocytes was studied after 3-minute incubation in a wide range of concentrations from 10^−3 to 10^−7 M to minimum concentration of 10^−7 M not inducing no effect of suppressing the aggregation.

thymus = assay: Morphine abstinence model: thymus condition; type: in vivo, rats; conditions: morphine alone
Procedure: The effect of the compounds according to the invention on the condition of the thymus of the rats was also investigated: a control group, an experimental group of morphinized animals and an experimental group of animals were first morphinized and then injected with the compounds according to the invention. The experiment was carried out similarly to that described above.

[2] = system: synthase of nitrogen oxide (NOC); assay: Morphine abstinence model: activity of synthase of nitrogen oxide (radiometric, [3H]L-citrulline); type: in vivo, rats Wistar; conditions: morphine alone
[3] = Polarographic study of electrochemical reduction (electrochemical activity); type: physicochemical; conditions: for i, mkA (polarographic wave current) / −E1/2, V (half-wave potential vs SCE): 37° C., forward trace, average for the group; for i, mkA (polarographic wave current): 9·10^−4 M
Procedure: The study was carried out on a general-purpose polarograph PU-1 with a two-coordinate recorder of the “LKD” type using a three-electrode thermostatically controlled polarographic cell and mercury dripping electrode (MDE) with forced separation of the drop and a dropping period of 0.5 second. A platinum wire was used as an auxiliary electrode and a saturated calomel electrode (SCE) was used as a control electrode.
2.0% solutions of sodium chloride having pH 7.0, 7.2, 7.4, 7.6 were used as a background; the pH values of the background solution were corrected by a solution of sodium hydroxide. The polarographic cell was filled with 5.0 ml of the background solution and for 5 minutes was purged with nitrogen for removing the dissolved oxygen. Then 0.5 ml of solution of the studied substance was added to the background solution, and the polarogram was recorded as a polarographic wave. The concentration of the compounds in the polarographic cell was 9·10^−4 M.
The pH was measured on the pH-meter with an accuracy of ±0.05 pH units. The polarographic measurements were carried out at a temperature of 37° C. The recording of polarograms of the investigated materials was effected under conditions of DC current at a scanning rate of the potential 10.0 mV/s with a active scanning stroke from a potential 0 to −0.5 V and sweep retrace from a −0.5 V to 0. The electric-current sensitivity was 5.0 mkA. The scale by the coordinate of the potentials was 50.0 mV/cm. The values of potentials of the half-wave E1/2 of the investigated materials are given with respect to the SCE potential.
The polarogram parameters such as a limiting current ilim and E1/2 were determined by the graphic method. The number of electrons participating in the reaction was calculated on the basis of the analysis of the polarographic wave using the Geirovsky-Ilkovich equation.

## O=c1[nH]n([C@@H]2O[C@H](CO)[C@@H](O)[C@H]2O)c(=O)c2nccc(O)c12.[Na].[Na] [Compound 4, disodium salt of 4-hydroxy-7-(βD-ribofuranosile)pyrido[2,3-d]-6H-pyridazine-5,8-dione]
[1]; 10^−3 M
  MA - fall of optical density of plasma, % to the standard: 49.2 ± 2.3 %
[1]; 10^−4 M
  MA - fall of optical density of plasma, % to the standard: 50.2 ± 2.0 %
[1]; 10^−5 M
  MA - fall of optical density of plasma, % to the standard: 46.2 ± 3.1 %
[1]; 10^−6 M
  MA - drop of optical density, % compared to control: 50.6 ± 3.1%
[1]; 10^−7 M
  MA - drop of optical density, % compared to control: 49.9 ± 3.4%

## O=c1[nH]n([C@@H]2O[C@H](CO)[C@@H](O)[C@H]2O)c(=O)c2ccccc12.[Na] [Compound 9, sodium salt of 2-(β-D-ribofuranosile)benzo[d]-3H-pyridazine-1,4-dione]
[1]; 10^−3 M
  MA - fall of optical density of plasma, % to the standard: 47.3 ± 2.0 %
[1]; 10^−4 M
  MA - fall of optical density of plasma, % to the standard: 53.1 ± 1.8 %
[1]; 10^−5 M
  MA - fall of optical density of plasma, % to the standard: 41.4 ± 3.4 %
[1]; 10^−6 M
  MA - drop of optical density, % compared to control: 49.4 ± 3.2%
[1]; 10^−7 M
  MA - drop of optical density, % compared to control: 51.2 ± 1.7%

## Nc1cnc2c(=O)[nH][nH]c(=O)c2n1.[Na] [Compound 28, sodium salt of 2-amino-pyrazine[2,3-d]-6H-pyridazine-5,8-dione]
[1]; 10^−3 M
  MA - fall of optical density of plasma, % to the standard: 49.7 ± 2.2 %
[1]; 10^−4 M
  MA - fall of optical density of plasma, % to the standard: 48.9 ± 2.4 %
[1]; 10^−5 M
  MA - fall of optical density of plasma, % to the standard: 44.2 ± 2.7 %
[1]; 10^−7 M
  MA - drop of optical density, % compared to control: 50.4 ± 3.0%

## Nc1ncnc2c(=O)n([C@@H]3O[C@H](CO)[C@@H](O)[C@H]3O)[nH]c(=O)c12.[Na] [Compound 31, sodium salt of 4-amino-7-(β-D-ribofuranosile)pyrimido[4,5-d]-6H-pyridazine-5,8-dione]
[1]; 10^−3 M
  MA - fall of optical density of plasma, % to the standard: 44.9 ± 2.3 %
[1]; 10^−4 M
  MA - fall of optical density of plasma, % to the standard: 46.7 ± 2.2 %
[1]; 10^−5 M
  MA - fall of optical density of plasma, % to the standard: 39.9 ± 2.1 %
[1]; 10^−6 M
  MA - drop of optical density, % compared to control: 47.5 ± 1.7 %
[1]; 10^−7 M
  MA - drop of optical density, % compared to control: 49.5 ± 1.2%

## CN1CC[C@]23c4c5ccc(O)c4O[C@H]2[C@@H](O)C=C[C@H]3[C@H]1C5 [Morphine, reference compound]
thymus
  Nitrites, thymus Supernatant, Administration of morphine: 0.511 ± 0.05 nmol/mg of protein
  Thymus mass, Administration of morphine: 145 ± 9 mg
[2]
  activity of the calcium-dependent form NOC in the liver: rise of activity of the calcium-dependent form NOC
  activity of the calcium-independent form NOC in the liver: decrease of activity of the calcium-independent form NOC

## sodium salt of 5-amino-2-(CP(β-D-ribofuranosile)benzo[d]-3H-pyridazine-1,4-dione [Compound 10]
[3]; calculated with the Geirovsky-Ilkovich equation
  number of electrons participating in the reduction: 4.09
[3]; pH 7.0
  i, mkA (polarographic wave current): 0.23 ± 0.03 mkA
  −E1/2, V (half-wave potential vs SCE): 0.092 ± 0.02 V
[3]; pH 7.2
  i, mkA (polarographic wave current): 0.30 ± 0.01 mkA
  −E1/2, V (half-wave potential vs SCE): 0.09 ± 0.01 V
[3]; pH 7.4
  i, mkA (polarographic wave current): 0.29 ± 0.02 mkA
  −E1/2, V (half-wave potential vs SCE): 0.092 ± 0.02 V
[3]; pH 7.6
  i, mkA (polarographic wave current): 0.31 ± 0.02 mkA
  −E1/2, V (half-wave potential vs SCE): 0.09 ± 0.01 V
[3]; reverse stroke vs forward stroke
  half-wave potential more positive on reverse stroke than on forward stroke: 30.0 mV
[1]; 10^−3 M
  MA - fall of optical density of plasma, % to the standard: 46.2 ± 2.7 %
[1]; 10^−4 M
  MA - fall of optical density of plasma, % to the standard: 48.7 ± 2.4 %
[1]; 10^−5 M
  MA - fall of optical density of plasma, % to the standard: 40.2 ± 4.0 %
[1]; 10^−6 M
  MA - drop of optical density, % compared to control: 48.4 ± 2.4%
[1]; 10^−7 M
  MA - drop of optical density, % compared to control: 49.8 ± 2.0%
